Measured values: US20250361268A1, “NOVEL ANTI-INFLAMMATORY PEPTIDE AND USE THEREOF” (NOVACELL TECHNOLOGY INC., priority 2022, published 2025)
Peptide text beside a SMILES is read from it.

Legend:
FPR1 = target: T1, FPR1 (Homo sapiens, UniProt P21462); assay: Change in calcium activity by peptide, FPR1 activation effect; format: cell-based; details: calcium activity (Fura-2), graded per Table 3, read-out: EC50 for [Ca^2+] FPR1
T1 sequence (P21462 1-350): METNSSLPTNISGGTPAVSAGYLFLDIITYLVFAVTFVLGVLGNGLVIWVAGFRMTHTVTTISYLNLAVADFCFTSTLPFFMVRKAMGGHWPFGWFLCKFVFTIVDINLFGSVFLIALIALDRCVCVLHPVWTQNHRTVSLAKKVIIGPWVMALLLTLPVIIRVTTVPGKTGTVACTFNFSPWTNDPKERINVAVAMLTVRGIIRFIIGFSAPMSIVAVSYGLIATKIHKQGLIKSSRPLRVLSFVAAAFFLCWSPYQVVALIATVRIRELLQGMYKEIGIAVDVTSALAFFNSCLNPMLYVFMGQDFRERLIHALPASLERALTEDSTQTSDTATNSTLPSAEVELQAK
Experimental: The day before measuring calcium activity, the cells were prepared at 3×10^5 cells per well in a 96-well flat clear bottom black plate (Costar, #3603). The prepared cells were treated with a Fura-2 QBT calcium kit (component A; Molecular Devices, #8197) at the same volume per well. After incubation at 37° C. for 1 hour, the cells were incubated in a dark room at room temperature for 30 minutes. After the Fura-2-treated cells, the prepared peptide, and a dedicated tip were placed at each section of FlexStation 3 Multi-Mode Microplate Reader (Molecular Devices, #Flex3), changes in calcium activity caused by the peptides were measured using SoftMax Pro 7 Software (Molecular Devices, #FLEX3-INSTALL-OS). […]

FPR2 = target: T2, FPR2 (Homo sapiens, UniProt P25090); assay: Change in calcium activity by peptide (Fura-2) in RBL cells overexpressing FPR2; format: cell-based; details: calcium activity (Fura-2), graded per Table 3, read-out: EC50 for [Ca^2+] FPR2
T2 construct: expressed in transfected cells; host or cells: RBL cells (RBL-FPR2)
T2 sequence (P25090 1-351): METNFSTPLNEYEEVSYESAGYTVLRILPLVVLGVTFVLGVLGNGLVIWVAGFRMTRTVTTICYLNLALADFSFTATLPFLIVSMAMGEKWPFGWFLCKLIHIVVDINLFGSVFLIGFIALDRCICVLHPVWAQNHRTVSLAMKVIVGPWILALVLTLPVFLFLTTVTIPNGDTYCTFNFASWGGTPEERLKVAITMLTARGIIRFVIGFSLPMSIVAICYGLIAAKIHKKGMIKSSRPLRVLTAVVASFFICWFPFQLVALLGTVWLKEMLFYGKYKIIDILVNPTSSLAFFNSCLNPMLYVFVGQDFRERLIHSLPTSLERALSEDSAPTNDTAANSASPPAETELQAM
Experimental: The present inventors observed changes in calcium ion permeability to confirm whether the immunomodulatory peptide candidates prepared according to one example of the present invention activate the immune function of a living organism. Specifically, the concentration of calcium ions in cells was measured to confirm whether the peptides activate FPR2.
A peptide dissolved in water or 50% DMSO at a concentration of 0.5 mM was prepared by diluting it to an appropriate concentration in HBSS (Sigma, #55037C)+20 mM HEPES buffer.
In this experiment, the cells were cultured in DMEM (Lonza, #BE12-604F) containing 10% fetal bovine serum (FBS) and 1% penicillin-streptomycin under conditions of 37° C. and 5% CO2.
The day before measuring calcium activity, the cells were prepared at 3×10^5 cells per well in a 96-well flat clear bottom black plate (Costar, #3603). The prepared cells were treated with a Fura-2 QBT calcium kit (component A; Molecular Devices, #8197) at the same volume per well. After incubation at 37° C. for 1 hour, the cells were incubated in a dark room at room temperature for 30 minutes. After the Fura-2-treated cells, the prepared peptide, and a dedicated tip were placed at each section of FlexStation 3 Multi-Mode Microplate Reader (Molecular Devices, #Flex3), changes in calcium activity caused by the peptides were measured using SoftMax Pro 7 Software (Molecular Devices, #FLEX3-INSTALL-OS).

| SMILES | EC50 (FPR1) [µM] | EC50 (FPR2) [µM] |
| --- | --- | --- |
| CSCC[C@H](NC(=O)[C@H](Cc1c[nH]cn1)NC(C)=O)C(=O)N[C@@H](CCCNC(=N)N)C(=O)N[C@@H](Cc1ccc(O)cc1)C(=O)N[C@@H](CCCCN)C(=O)N1CCC[C@H]1C(=O)N[C@H](CCSC)C(N)=O [Peptide 59] (HELM PEPTIDE1{[ac].H.M.R.Y.K.P.[dM].[am]}$$$$V2.0) | > 10 | < 0.01 |
| CSCC[C@H](NC(=O)[C@@H](N)Cc1c[nH]cn1)C(=O)N[C@@H](CCCNC(=N)N)C(=O)N[C@@H](Cc1ccc(O)cc1)C(=O)N[C@@H](CCCNC(=N)N)C(=O)N[C@H](C(=O)N[C@H](CCSC)C(N)=O)C(C)C [Peptide 31] (HELM PEPTIDE1{H.M.R.Y.R.V.[dM].[am]}$$$$V2.0) | 1 to 10 | < 0.01 |
| CSCC[C@H](N)C(=O)N[C@@H](CCCCN)C(=O)N[C@@H](Cc1ccc(O)cc1)C(=O)N[C@@H](Cc1c[nH]c2ccccc12)C(=O)N[C@@H](Cc1ccc(O)cc1)C(=O)N[C@H](CCSC)C(N)=O [Peptide 89] (HELM PEPTIDE1{M.K.Y.W.Y.[dM].[am]}$$$$V2.0) | > 10 | < 0.01 |
| CSCC[C@H](NC(C)=O)C(=O)N[C@@H](CCCCN)C(=O)N[C@@H](Cc1ccc(O)cc1)C(=O)N[C@@H](Cc1c[nH]c2ccccc12)C(=O)N[C@@H](Cc1ccc(O)cc1)C(=O)N[C@H](CCSC)C(N)=O [Peptide 90] (HELM PEPTIDE1{[ac].M.K.Y.W.Y.[dM].[am]}$$$$V2.0) | > 10 | 0.011 to 0.1 |
| CSCC[C@@H](NC(=O)[C@@H]1CCCN1C(=O)[C@H](CCCCN)NC(=O)[C@H](Cc1ccc(O)cc1)NC(=O)[C@H](CCCCN)NC(=O)[C@@H](N)Cc1c[nH]cn1)C(N)=O [Peptide 146] (HELM PEPTIDE1{H.K.Y.K.P.[dM].[am]}$$$$V2.0) | > 10 | < 0.01 |
| CCCCCCCC(=O)N[C@@H](CCCNC(=N)N)C(=O)N[C@@H](Cc1c[nH]c2ccccc12)C(=O)N[C@@H](CCCNC(=N)N)C(=O)N[C@@H](Cc1ccc(O)cc1)C(=O)N[C@@H](CCCCN)C(=O)N[C@@H](Cc1ccc(O)cc1)C(=O)N[C@H](CCSC)C(N)=O [Peptide 34] (HELM PEPTIDE1{[CCCCCCCC(=O)[*:2]].R.W.R.Y.K.Y.[dM].[am]}$$$$V2.0) | > 10 | 0.011 to 0.1 |
| CSCC[C@H](NC(=O)[C@@H](N)Cc1c[nH]cn1)C(=O)N[C@@H](CCCCN)C(=O)N[C@@H](Cc1ccc(O)cc1)C(=O)N[C@@H](CCCCN)C(=O)N[C@H](C(=O)N[C@H](CCSC)C(N)=O)C(C)C [Peptide 21] (HELM PEPTIDE1{H.M.K.Y.K.V.[dM].[am]}$$$$V2.0) | > 10 | < 0.01 |
| CSCC[C@@H](NC(=O)[C@@H]1CCCN1C(=O)[C@H](Cc1c[nH]c2ccccc12)NC(=O)[C@H](Cc1ccc(O)cc1)NC(=O)[C@H](CCCNC(=N)N)NC(=O)[C@@H](N)Cc1c[nH]c2ccccc12)C(N)=O [Peptide 118] (HELM PEPTIDE1{W.R.Y.W.P.[dM].[am]}$$$$V2.0) | 0.101 to 1 | < 0.01 |
| CSCC[C@@H](NC(=O)[C@@H](NC(=O)[C@H](Cc1ccc(O)cc1)NC(=O)[C@H](Cc1ccc(O)cc1)NC(=O)[C@H](CCCNC(=N)N)NC(=O)[C@H](Cc1c[nH]c2ccccc12)NC(C)=O)C(C)C)C(N)=O [Peptide 95] (HELM PEPTIDE1{[ac].W.R.Y.Y.V.[dM].[am]}$$$$V2.0) | 0.101 to 1 | 0.011 to 0.1 |
| CSCC[C@H](NC(C)=O)C(=O)N[C@@H](CCCNC(=N)N)C(=O)N[C@@H](Cc1ccc(O)cc1)C(=O)N[C@@H](Cc1c[nH]c2ccccc12)C(=O)N[C@@H](Cc1ccc(O)cc1)C(=O)N[C@H](CCSC)C(N)=O [Peptide 86] (HELM PEPTIDE1{[ac].M.R.Y.W.Y.[dM].[am]}$$$$V2.0) | > 10 | < 0.01 |
| CSCC[C@H](NC(=O)[C@@H](N)CCCCN)C(=O)N[C@@H](CCCCN)C(=O)N[C@@H](Cc1ccc(O)cc1)C(=O)N[C@@H](CCCCN)C(=O)N1CCC[C@H]1C(=O)N[C@H](CCSC)C(N)=O [Peptide 66] (HELM PEPTIDE1{K.M.K.Y.K.P.[dM].[am]}$$$$V2.0) | > 10 | 0.011 to 0.1 |
| CCCCCCCC(=O)N[C@@H](Cc1c[nH]cn1)C(=O)N[C@@H](CCSC)C(=O)N[C@@H](CCCNC(=N)N)C(=O)N[C@@H](Cc1ccc(O)cc1)C(=O)N[C@@H](CCCCN)C(=O)N1CCC[C@H]1C(=O)N[C@H](CCSC)C(N)=O [Peptide 61] (HELM PEPTIDE1{[CCCCCCCC(=O)[*:2]].H.M.R.Y.K.P.[dM].[am]}$$$$V2.0) | > 10 | < 0.01 |
| CSCC[C@@H](NC(=O)[C@@H](NC(=O)[C@H](CCCCN)NC(=O)[C@H](Cc1ccc(O)cc1)NC(=O)[C@H](CCCCN)NC(=O)[C@@H]1CCCN1)C(C)C)C(N)=O [Peptide 138] (HELM PEPTIDE1{P.K.Y.K.V.[dM].[am]}$$$$V2.0) | > 10 | < 0.01 |
| CSCC[C@H](NC(C)=O)C(=O)N[C@@H](CCCNC(=N)N)C(=O)N[C@@H](Cc1ccc(O)cc1)C(=O)N[C@@H](CCCNC(=N)N)C(=O)N[C@@H](Cc1ccc(O)cc1)C(=O)N[C@H](CCSC)C(N)=O [Peptide 49] (HELM PEPTIDE1{[ac].M.R.Y.R.Y.[dM].[am]}$$$$V2.0) | > 10 | 0.011 to 0.1 |
| CSCC[C@@H](NC(=O)[C@@H]1CCCN1C(=O)[C@H](Cc1c[nH]c2ccccc12)NC(=O)[C@H](Cc1ccc(O)cc1)NC(=O)[C@H](CCCNC(=N)N)NC(=O)[C@H](Cc1c[nH]c2ccccc12)NC(=O)[C@H](CCCNC(=N)N)NC(C)=O)C(N)=O [Peptide 117] (HELM PEPTIDE1{[ac].R.W.R.Y.W.P.[dM].[am]}$$$$V2.0) | 0.101 to 1 | < 0.01 |
| CCCCCCCC(=O)N[C@@H](CCSC)C(=O)N[C@@H](CCCNC(=N)N)C(=O)N[C@@H](Cc1ccc(O)cc1)C(=O)N[C@@H](CCCCN)C(=O)N[C@H](C(=O)N[C@H](CCSC)C(N)=O)C(C)C [Peptide 16] (HELM PEPTIDE1{[CCCCCCCC(=O)[*:2]].M.R.Y.K.V.[dM].[am]}$$$$V2.0) | > 10 | 0.011 to 0.1 |
| CSCC[C@@H](NC(=O)[C@H](Cc1ccc(O)cc1)NC(=O)[C@H](Cc1c[nH]c2ccccc12)NC(=O)[C@H](Cc1ccc(O)cc1)NC(=O)[C@H](CCCNC(=N)N)NC(=O)[C@@H](N)Cc1c[nH]c2ccccc12)C(N)=O [Peptide 79] (HELM PEPTIDE1{W.R.Y.W.Y.[dM].[am]}$$$$V2.0) | > 10 | 0.011 to 0.1 |
| CSCC[C@H](NC(=O)[C@@H](N)CCCNC(=N)N)C(=O)N[C@@H](CCCNC(=N)N)C(=O)N[C@@H](Cc1ccc(O)cc1)C(=O)N[C@@H](CCCCN)C(=O)N1CCC[C@H]1C(=O)N[C@H](CCSC)C(N)=O [Peptide 50] (HELM PEPTIDE1{R.M.R.Y.K.P.[dM].[am]}$$$$V2.0) | > 10 | < 0.01 |
| CSCC[C@@H](NC(=O)[C@H](Cc1ccc(O)cc1)NC(=O)[C@H](CC(N)=O)NC(=O)[C@H](Cc1ccc(O)cc1)NC(=O)[C@H](CCCNC(=N)N)NC(=O)[C@H](Cc1c[nH]c2ccccc12)NC(=O)[C@@H](N)CCCNC(=N)N)C(N)=O [Peptide 155] (HELM PEPTIDE1{R.W.R.Y.N.Y.[dM].[am]}$$$$V2.0) | > 10 | 0.011 to 0.1 |
| CCCCCCCC(=O)N1CCC[C@H]1C(=O)N[C@@H](CCSC)C(=O)N[C@@H](CCCCN)C(=O)N[C@@H](Cc1ccc(O)cc1)C(=O)N[C@@H](CCCCN)C(=O)N[C@H](C(=O)N[C@H](CCSC)C(N)=O)C(C)C [Peptide 28] (HELM PEPTIDE1{[CCCCCCCC(=O)[*:2]].P.M.K.Y.K.V.[dM].[am]}$$$$V2.0) | > 10 | < 0.01 |
